PMC7064328 (Environmental Health Perspectives, 2020)
Where “and” joins values, the source holds several entries; their conditions need not be identical. Equal values may be shown once.

Assays:
[1] = Maternal indices: dam body weight, gestational weight gain, liver and kidney weight after daily oral gavage E1.5 to E11.5 or E17.5; assay type: in vivo, mouse (CD-1); settings: female, CD-1, mouse, in vivo, oral; dam systemic toxicity: liver alterations, higher GWG, placental lesions; read-out: Lowest dose group evaluated, with significant adverse effects (no NOAEL reportable)
Protocol: Naïve female CD-1 mice between 7.5 and 15.5 wk of age from the NIEHS colony were bred in-house on a single night, and copulatory plug–positive females were identified on embryonic day (E) 0.5. Pregnant dams were singly housed in ventilated polypropylene cages and received nesting materials, National Institutes of Health (NIH)-31 diet (Zeigler Bros., Inc.) and reverse osmosis deionized (RODI) water ad libitum. Animals were housed in humidity- and temperature-controlled rooms with 25°C and 45–60% average humidity and standard 12-h light cycles. All animal procedures were approved by the NIEHS Animal Care and Use Committee (ASP #2017-0022).
PFOA and GenX dosing solutions were prepared in RODI water and administered to mice once daily via oral gavage. Daily doses were administered between 0700 and 0800 hours and adjusted to the BW of the mouse based on the previous day’s weight at a volume of 0.01mL/g BW. […] The dose of 1mg/kg BW/d PFOA, used in the mouse developmental toxicity study of [Lau et al. 2006], provided a lowest effect dose that was used to set the reference dose within the U.S. EPA’s drinking water lifetime health advisory level (HAL) of 70 ppt PFOA ([U.S. EPA 2016]).
This experiment was conducted over two blocks (Block 1 and Block 2) to achieve a total of n=11–13 litters per treatment group and sacrifice time point (E11.5 and E17.5). The experimental design of the second block was identical to the first block of the study, and experimental methods were similar but expanded upon to include more rigorous and detailed measurements. Copulatory plug–positive mice (E0.5) were weighed to obtain a baseline BW and placed into one of five groups. Once all mice were assigned to groups, mean BWs were calculated, and a few animals were reassigned so that mean BWs in each group were similar. This was done to avoid confounding effects of baseline BW. Treatment groups were then randomly assigned a color by using a random sequence generator. Experimenters and dosing technicians were blinded to the treatment group to which the color groups corresponded throughout the duration of the study, including at necropsy. […] Pregnant dams were dosed via oral gavage from E1.5 to E11.5 or from E1.5 to E17.5. […] The E11.5 early-gestation time point was selected because it overlaps a critical period of placental development in the mouse where the placenta undergoes vascularization with the uterine wall and chorioallantoic branching of vessels begins ([Watson and Cross 2005]). The E17.5 late-gestation time point was selected so that embryo weight changes that may be related to treatment would be evident.
(§1) On the day of necropsy, dams received daily oral gavage between 0700 and 0800 hours and were weighed and then euthanized humanely by swift decapitation, and serum was collected. In Block 1, necropsies were completed from 0800 to 1600 hours, and in Block 2, necropsies were completed from 0800 to 1200 hours. Serum from dams euthanized in Block 1 was snap frozen for internal dosimetry analyses. Serum and urine from Block 2 dams were reserved for clinical chemistry analyses. In both blocks, the uterus was removed, and total implantation sites were counted based on gross observation of an implantation nodule along the uterine horn. Viable embryos, nonviable embryos, and sites of resorption were counted based on gross observation. Embryos were considered viable if they were properly formed, were not pale in color, and were of similar size to neighboring embryos. Embryos that were poorly formed and pale in color (without heartbeat) were considered nonviable. Sites of resorption were defined as a dark red–appearing clot-like nodule apparent on gross observation.
From each uterus, first, viable embryos and their matched placentas were collected in succession within a horn and immediately snap frozen ( n=2–5 per litter ), and subsequent embryos were collected for growth measurements ( n=2–11 per litter ). […]

[2] = Internal dosimetry of PFOA and GenX in maternal serum, maternal liver, amniotic fluid and whole embryos (UPLC-MS/MS); assay type: in vivo, mouse (CD-1)
Protocol: Solid tissues were homogenized in RODI water at a ratio of approximately 1:3 tissue mass (milligrams) to liquid volume (microliters). Maternal serum, amniotic fluid, and tissue homogenates ( 25μL ) were spiked with internal standard suspended in 0.1M formic acid in a denaturation step, followed by a subsequent protein crash using ice-cold acetonitrile. Samples were vortex mixed after addition of formic acid and acetonitrile and then centrifuged at 10,000×g for 5 min. Extract supernatants were separated using a Waters ACQUITY UPLC® (Waters Corporation) fitted with a Waters ACQUITY UPLC® BEH C18 Column ( 130Å; 1.7μm; 2.1mm×50mm ). Detection was performed using a Waters Quattro Premier™ XE tandem quadrupole mass spectrometer in negative ionization mode.

[3] = Litter parameters at necropsy (implantation sites, resorptions, viable and nonviable embryos); assay type: in vivo, mouse (CD-1); settings: female, CD-1, mouse, in vivo, oral, percent of implantation sites
Protocol: as §1

Pregnant CD-1 mice = assay: as above; assay type: in vivo, mouse (CD-1); settings: for % nonviable / % resorbed: percent of implantation sites
Protocol: as §1

[4] = design: method as in Gannon et al. 2016; settings: mice; ref Gannon et al. 2016; cited from earlier work
[5] = design: method as in Olsen et al. 2007; settings: ref Olsen et al. 2007; cited from earlier work
humans = tested on: humans; design: method as in Johnson et al. 2014; settings: meta-analysis; ref Johnson et al. 2014; cited from earlier work

## N.O=C(O)C(F)(OC(F)(F)C(F)(F)C(F)(F)F)C(F)(F)F (stereo not shown) [GenX, ammonium 2,3,3,3-tetrafluoro-2-(heptafluoropropoxy)propanoate]
[1]
  LOAEL: 2 mg/kg/day
[2]; 2 mg/kg/d
  Serum concentration, pregnant mice: ~33000 ng/mL
[2]; 10 mg/kg/d throughout gestation
  Dam serum concentration: ~100 µg/mL
[2]; E11.5, 2 mg/kg/d
  Amniotic fluid concentration: 3.6 ± 2.2 µg/mL
  Maternal liver concentration: 5.45 ± 3.43 µg/g
  Maternal serum concentration: 33.5 ± 15.7 µg/mL
  Whole embryo concentration: 0.91 ± 0.22 µg/g and 0.91 ± 0.2 µg/g
[2]; E11.5, 2 mg/kg/d GenX vs 1 mg/kg/d PFOA
  GenX accumulation in dam serum higher than accumulation of PFOA: 32%
[2]; E11.5, 10 mg/kg/d
  Amniotic fluid concentration: 9.3 ± 2.0 µg/mL
  Maternal liver concentration: 19.9 ± 4.2 µg/g
  Maternal serum concentration: 118.1 ± 10.4 µg/mL
  Whole embryo concentration: 3.21 ± 0.51 µg/g and 3.21 ± 0.5 µg/g
[2]; E17.5, 2 mg/kg/d
  Female embryo concentration: 3.39 ± 1.44 µg/g
  Male embryo concentration: 3.04 ± 1.27 µg/g
  Maternal liver concentration: 4.56 ± 2.80 µg/g
  Maternal serum concentration: 22.9 ± 17.1 µg/mL
  Whole embryo concentration: 3.23 ± 1.28 µg/g
[2]; E17.5, 10 mg/kg/d
  Female embryo concentration: 6.89 ± 2.72 µg/g
  Male embryo concentration: 7.55 ± 3.35 µg/g
  Maternal liver concentration: 14.2 ± 7.6 µg/g
  Maternal serum concentration: 58.5 ± 34.5 µg/mL
  Whole embryo concentration: 7.69 ± 2.92 µg/g
[3]; 2 mg/kg/d, E11.5
  viability: 95 ± 6.2%
[3]; 2 mg/kg/d, E17.5
  viability: 98.1 ± 4.6%
[3]; 10 mg/kg/d, E11.5
  viability: 92.4 ± 9.3%
[3]; 10 mg/kg/d, E17.5
  viability: 96.5 ± 5.3%
Pregnant CD-1 mice; E11.5, 2 mg/kg/d
  No. dead embryos: 0.0 ± 0.0
  No. implantation sites: 14.7 ± 2.7
  No. resorptions: 0.7 ± 0.8
  No. viable embryos: 14.0 ± 2.9
  % nonviable: 0.0 ± 0.0%
  % resorbed: 5.0 ± 6.2%
Pregnant CD-1 mice; E11.5, 10 mg/kg/d
  No. dead embryos: 0.1 ± 0.3
  No. implantation sites: 14.8 ± 3.7
  No. resorptions: 0.9 ± 1.3
  No. viable embryos: 13.8 ± 3.7
  % nonviable: 2.1 ± 7.2%
  % resorbed: 5.6 ± 7.7%
Pregnant CD-1 mice; E17.5, 2 mg/kg/d
  No. dead embryos: 0.1 ± 0.3
  No. implantation sites: 13.8 ± 2.0
  No. resorptions: 0.2 ± 0.6
  No. viable embryos: 13.5 ± 2.1
  % nonviable: 0.7 ± 2.4%
  % resorbed: 1.2 ± 4.1%
Pregnant CD-1 mice; E17.5, 10 mg/kg/d
  No. dead embryos: 0.0 ± 0.0
  No. implantation sites: 12.5 ± 3.1
  No. resorptions: 0.5 ± 0.7
  No. viable embryos: 12.0 ± 3.0
  % nonviable: 0.0 ± 0.0%
  % resorbed: 3.5 ± 5.3%
[4]
  Elimination half-life: ~20 h

## O=C(O)C(F)(F)C(F)(F)C(F)(F)C(F)(F)C(F)(F)C(F)(F)C(F)(F)F [PFOA, Perfluorooctanoic acid]
[2]; E11.5, 1 mg/kg/d
  Amniotic fluid concentration: 4.6 ± 2.8 µg/mL
  Maternal liver concentration: 48.3 ± 12.5 µg/g
  Maternal serum concentration: 25.4 ± 3.7 µg/mL
  Whole embryo concentration: 0.80 ± 0.10 µg/g
[2]; E11.5, 5 mg/kg/d
  Amniotic fluid concentration: 8.8 ± 2.7 µg/mL
  Maternal liver concentration: 151.5 ± 18.5 µg/g
  Maternal serum concentration: 117.3 ± 20.6 µg/mL
  Whole embryo concentration: 2.34 ± 0.27 µg/g and 2.34 ± 0.3 µg/g
[2]; E17.5, 1 mg/kg/d
  Female embryo concentration: 5.78 ± 0.81 µg/g
  Male embryo concentration: 5.78 ± 0.82 µg/g
  Maternal liver concentration: 181.1 ± 46.0 µg/g
  Maternal serum concentration: 18.7 ± 3.2 µg/mL
  Whole embryo concentration: 5.78 ± 0.71 µg/g
[2]; E17.5, 5 mg/kg/d
  Female embryo concentration: 16.1 ± 2.75 µg/g
  Male embryo concentration: 16.9 ± 1.88 µg/g
  Maternal liver concentration: 159.2 ± 21.7 µg/g
  Maternal serum concentration: 95.1 ± 14.1 µg/mL
  Whole embryo concentration: 16.4 ± 1.75 µg/g
[2]; by E17.5, regardless of PFOA dose group
  Maximum bioaccumulation in maternal liver: 160–180 μg PFOA/g liver
[3]; 1 mg/kg/d, E11.5
  viability: 96 ± 3.3%
[3]; 1 mg/kg/d, E17.5
  viability: 96.8 ± 4.1%
[3]; 5 mg/kg/d, E11.5
  viability: 95.9 ± 5.9%
[3]; 5 mg/kg/d, E17.5
  viability: 97.7 ± 3.4%
Pregnant CD-1 mice; E11.5, 1 mg/kg/d
  No. dead embryos: 0.0 ± 0.0
  No. implantation sites: 15.5 ± 2.7
  No. resorptions: 0.6 ± 0.5
  No. viable embryos: 14.8 ± 2.5
  % nonviable: 0.0 ± 0.0%
  % resorbed: 4.0 ± 3.3%
Pregnant CD-1 mice; E11.5, 5 mg/kg/d
  No. dead embryos: 0.1 ± 0.3
  No. implantation sites: 14.5 ± 2.3
  No. resorptions: 0.5 ± 0.9
  No. viable embryos: 13.9 ± 2.2
  % nonviable: 0.6 ± 1.9%
  % resorbed: 3.6 ± 5.9%
Pregnant CD-1 mice; E17.5, 1 mg/kg/d
  No. dead embryos: 0.1 ± 0.3
  No. implantation sites: 13.5 ± 2.0
  No. resorptions: 0.3 ± 0.5
  No. viable embryos: 13.1 ± 2.1
  % nonviable: 0.6 ± 2.1%
  % resorbed: 2.6 ± 3.9%
Pregnant CD-1 mice; E17.5, 5 mg/kg/d
  No. dead embryos: 0.0 ± 0.0
  No. implantation sites: 13.7 ± 2.1
  No. resorptions: 0.3 ± 0.5
  No. viable embryos: 13.3 ± 1.9
  % nonviable: 0.0 ± 0.0%
  % resorbed: 2.3 ± 3.4%
[5]
  Human half-life: ~3.5 y
humans
  Shift in birth weight per 1-ng/mL increase in serum PFOA: -18.9 g
